Test results: patent US6355799B1, “Substituted benzene compounds, process for their preparation, and herbicidal and defoliant compositions containing them” (ISK Americas Incorporated, priority 1997, dated 2002)

Columns and labels:
Format in all cases: in vivo
[1] = test system: field corn (Zea mays L., var. Dekalb 535, CORN); assay: Pre-emerge test, crop safety; details: pre-emerge, 14 days after application, rating scale 0-100
Summary of the method: (§1)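 Sandy loam pots; pre-emerge: sown 1 d pre-spray, surface-watered after, then bottom-watered. Post-emerge: sown 8–21 d before, 2–3 leaf stage, + 0.25% v/v NIS, bottom-watered. Acetone, 187 l/ha track spray, 15–1000 g ai/ha. 0–100 injury score, day 14.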

[2] = test system: upland rice (Oryza sp., var. Tebonnet, RICE); assay: Pre-emerge test, crop safety; details: pre-emerge, 14 days after application, rating scale 0-100
Summary of the method: as §1

[3] = test system: field corn (Zea mays L., var. Dekalb 535, CORN); assay: Post-emerge test, crop safety; details: post-emerge, 14 days after application, rating scale 0-100
Summary of the method: (§2)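 Compounds in acetone were track-sprayed at 15-1000 g ai/ha (187 l/ha) on sandy loam pots: pre-emerge one day after seeding, post-emerge at 2-3 leaf stage with 0.25% v/v non-ionic surfactant. Phytotoxicity was rated 14 days later on a 0 (no damage) to 100 (complete death) scale.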

[4] = test system: upland rice (Oryza sp., var. Tebonnet, RICE); assay: Post-emerge test, crop safety; details: post-emerge, 14 days after application, rating scale 0-100
Summary of the method: as §2

[5] = test system: velvetleaf (Abutilon theophrasti, ABUTH); assay: Pre-emerge test, greenhouse herbicide activity screening; details: pre-emerge, 14 days after application, rating scale 0-100
Description: (§3) A standard greenhouse herbicide activity screening system was used to evaluate the herbicidal efficacy and crop safety of these test compounds. Seven broadleaf weed species including redroot pigweed (Amaranthus retroflexus, AMARE, velvetleaf (Abutilon theophrasti, ABUTH), sicklepod (Cassia obtusifolia, CASOB), ivyleaf morningglory (Ipomoea hederacea, IPOHE), lambsquarters (Chenopodium album, CHEAL), common ragweed (Ambrosia artemisizfolia L., AMBEL), and cocklebur (Xanthium strumarium, XANST) were used as test species. Four grass weed species including green foxtail (Setaria viridis, SETVI), barnyardgrass (Echinochloa crus-galli, ECHCG), johnsongrass (Sorghum halepense, SORHA), and large crabgrass (Digitaria sanguinalis, DIGSA) were also used. In addition, three crop species, field corn (Zea mays L., var. Dekalb 535, CORN), soybean (Glycine max L., var. Pella 86, SOY), and is upland rice (Oryza sp., var. Tebonnet, RICE) were included.
(§4) All plants were grown in 10 cm square plastic pots which were filled with a sandy loam soil mix. For pre-emerge tests, seeds were planted one day prior to application of the test compounds. For post-emerge tests, seeds were planted 8-21 days prior to the test to allow emergence and good foliage development prior to application of the test substances. At the time of the post-emerge application, plants of all species were usually at the 2-3 leaf stage of development.
(§5) All test compounds Were dissolved in acetone and applied to the test units in a volume of 187 l /ha. Test materials were applied at rates ranging from 15 g ai/ha to 1000 g ai/ha using a track sprayer equipped with a TJ8001E even flow flat fan spray nozzle. Plants were arranged on a shelf so that the top of the canopy (post-emerge) or top of the soil surface (pre-emerge) was 40-45 cm below the nozzle. Pressurized air was used to force the test solution through the nozzle as it was mechanically advanced (via electrically driven chain drive) over the top of all test plants/pots. This application simulates a typical commercial field herbicide application.
(§6) In the post-emerge test, a commercial non-ionic surfactant was also included (0.25% v/v) to enhance wetting of the leaf surfaces of target plants. Immediately after application, test units of the pre-emerge applications were watered at the soil surface to incorporate the test materials. Subsequently, these test units were bottom-watered. Post-emerge test units were always bottom-watered.
(§7) At 14 days after application of the test materials, phytotoxicity ratings were recorded. A rating scale of 0-100 was used as previously described in Research Methods in Weed Science, 2nd edition, B. Truelove, Ed., Southern Weed Science Society, Auburn University, Auburn, Ala. 1977. Briefly, “0” corresponds to no damage and “100” corresponds to complete death of all plants in the test unit. This scale was used both to determine efficacy against weed species and damage to crop species. Herbicide activity data for various compounds of this invention, which are shown by compound No. in Tables 1-8, are shown in Tables 11 and 12.

[6] = test system: ivyleaf morningglory (Ipomoea hederacea, IPOHE); assay: as above; details: pre-emerge, 14 days after application, rating scale 0-100
Description: as §3, §4, §5, §6, §7

[7] = test system: lambsquarters (Chenopodium album, CHEAL); assay: as above; details: pre-emerge, 14 days after application, rating scale 0-100
Description: as §3, §4, §5, §6, §7

[8] = test system: sicklepod (Cassia obtusifolia, CASOB); assay: as above; details: pre-emerge, 14 days after application, rating scale 0-100
Description: as §3, §4, §5, §6, §7

[9] = test system: green foxtail (Setaria viridis, SETVI); assay: as above; details: pre-emerge, 14 days after application, rating scale 0-100
Description: as §3, §4, §5, §6, §7

[10] = test system: large crabgrass (Digitaria sanguinalis, DIGSA); assay: as above; details: pre-emerge, 14 days after application, rating scale 0-100
Description: as §3, §4, §5, §6, §7

[11] = test system: barnyardgrass (Echinochloa crus-galli, ECHCG); assay: as above; details: pre-emerge, 14 days after application, rating scale 0-100
Description: as §3, §4, §5, §6, §7

[12] = test system: redroot pigweed (Amaranthus retroflexus, AMARE); assay: as above; details: pre-emerge, 14 days after application, rating scale 0-100
Summary of the method: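 Compounds in acetone were track-sprayed at 187 l/ha, 15–1000 g ai/ha, onto sandy loam pots. Pre-emerge seeds were sown one day before spraying, with surface watering afterwards. Post-emerge plants were at the 2–3 leaf stage and sprayed with 0.25% v/v non-ionic surfactant. Injury was rated 0–100 at 14 days.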

[13] = test system: velvetleaf (Abutilon theophrasti, ABUTH); assay: Post-emerge test, greenhouse herbicide activity screening; details: post-emerge, 14 days after application, rating scale 0-100
Description: as §3, §4, §5, §6, §7

[14] = test system: ivyleaf morningglory (Ipomoea hederacea, IPOHE); assay: as above; details: post-emerge, 14 days after application, rating scale 0-100
Description: as §3, §4, §5, §6, §7

[15] = test system: redroot pigweed (Amaranthus retroflexus, AMARE); assay: as above; details: post-emerge, 14 days after application
Description: as §3, §4, §5, §6, §7

[16] = test system: lambsquarters (Chenopodium album, CHEAL); assay: as above; details: post-emerge, 14 days after application, rating scale 0-100
Description: as §3, §4, §5, §6, §7

[17] = test system: sicklepod (Cassia obtusifolia, CASOB); assay: as above; details: post-emerge, 14 days after application, rating scale 0-100
Description: as §3, §4, §5, §6, §7

[18] = test system: green foxtail (Setaria viridis, SETVI); assay: as above; details: post-emerge, 14 days after application, rating scale 0-100
Description: as §3, §4, §5, §6, §7

[19] = test system: large crabgrass (Digitaria sanguinalis, DIGSA); assay: as above; details: post-emerge, 14 days after application, rating scale 0-100
Description: as §3, §4, §5, §6, §7

[20] = test system: barnyardgrass (Echinochloa crus-galli, ECHCG); assay: as above; details: post-emerge, 14 days after application, rating scale 0-100
Description: as §3, §4, §5, §6, §7

[21] = 63 g ai/ha, rating scale 0-100 (0 no damage, 100 complete death)
[22] = 250 g ai/ha, rating scale 0-100

Compound | phytotoxicity rating CORN ([1]; 63 g ai/ha) | phytotoxicity rating CORN ([1]; 250 g ai/ha) | phytotoxicity rating RICE ([2]; 63 g ai/ha) | phytotoxicity rating RICE ([2]; 250 g ai/ha) | Post-emerge Herbicidal Activity CORN (crop damage rating) ([3]; 63 g ai/ha) | Post-emerge Herbicidal Activity CORN (crop damage rating) ([3]; 250 g ai/ha) | Post-emerge Herbicidal Activity RICE (crop damage rating) ([4]; 63 g ai/ha) | Post-emerge Herbicidal Activity RICE (crop damage rating) ([4]; 250 g ai/ha) | phytotoxicity rating ABUTH ([5]; 63 g ai/ha) | phytotoxicity rating ABUTH ([5]; 250 g ai/ha) | phytotoxicity rating IPOHE ([6]; 63 g ai/ha) | phytotoxicity rating IPOHE ([6]; 250 g ai/ha) | phytotoxicity rating CHEAL ([7]; 63 g ai/ha) | phytotoxicity rating CHEAL ([7]; 250 g ai/ha) | phytotoxicity rating CASOB ([8]; 63 g ai/ha) | phytotoxicity rating CASOB ([8]; 250 g ai/ha) | phytotoxicity rating SETVI ([9]; 63 g ai/ha) | phytotoxicity rating SETVI ([9]; 250 g ai/ha) | phytotoxicity rating DIGSA ([10]; 63 g ai/ha) | phytotoxicity rating DIGSA ([10]; 250 g ai/ha) | also measured
COc1c(Cl)cc(F)c(-n2c(=O)cc(C(F)(F)F)n(C)c2=O)c1NNC(=O)c1ccc(F)cc1F [15-4] | 90 | 100 | 80 | 100 | 50 | 90 | 70 | 95 | 100 | 100 | 100 | 100 | 100 | 100 | 100 | 100 | 100 | 100 | 100 | 100 | phytotoxicity rating ECHCG ([11]; 63 g ai/ha): 80; phytotoxicity rating ECHCG ([11]; 250 g ai/ha): 100; phytotoxicity rating AMARE ([12]; 63 g ai/ha): 100; phytotoxicity rating AMARE ([12]; 250 g ai/ha): 100; Post-emerge Herbicidal Activity ABUTH (phytotoxicity rating) ([13]; 63 g ai/ha): 100; Post-emerge Herbicidal Activity ABUTH (phytotoxicity rating) ([13]; 250 g ai/ha): 100; Post-emerge Herbicidal Activity IPOHE (phytotoxicity rating) ([14]; 63 g ai/ha): 100; Post-emerge Herbicidal Activity IPOHE (phytotoxicity rating) ([14]; 250 g ai/ha): 100; Post-emerge Herbicidal Activity AMARE (phytotoxicity rating) [15, 21]: 70; Post-emerge Herbicidal Activity AMARE (phytotoxicity rating) [15, 22]: 100; Post-emerge Herbicidal Activity CHEAL (phytotoxicity rating) ([16]; 63 g ai/ha): 100; Post-emerge Herbicidal Activity CHEAL (phytotoxicity rating) ([16]; 250 g ai/ha): 100; Post-emerge Herbicidal Activity CASOB (phytotoxicity rating) ([17]; 63 g ai/ha): 50; Post-emerge Herbicidal Activity CASOB (phytotoxicity rating) ([17]; 250 g ai/ha): 80; Post-emerge Herbicidal Activity SETVI (phytotoxicity rating) ([18]; 63 g ai/ha): 50; Post-emerge Herbicidal Activity SETVI (phytotoxicity rating) ([18]; 250 g ai/ha): 80; Post-emerge Herbicidal Activity DIGSA (phytotoxicity rating) ([19]; 63 g ai/ha): 30; Post-emerge Herbicidal Activity DIGSA (phytotoxicity rating) ([19]; 250 g ai/ha): 70; Post-emerge Herbicidal Activity ECHCG (phytotoxicity rating) ([20]; 63 g ai/ha): 40; Post-emerge Herbicidal Activity ECHCG (phytotoxicity rating) ([20]; 250 g ai/ha): 90
COc1c(Cl)cc(F)c(-n2c(=O)cc(C(F)(F)F)n(C)c2=O)c1NNC(=O)c1ccc2ccccc2c1 [15-5] | 80 | 99 | 70 | 99 | 70 | 90 | 60 | 90 | 100 | 100 | 100 | 100 | 100 | 100 | 100 | 100 | 100 | 100 | 100 | 100 | phytotoxicity rating ECHCG ([11]; 63 g ai/ha): 70; phytotoxicity rating ECHCG ([11]; 250 g ai/ha): 99; phytotoxicity rating AMARE ([12]; 63 g ai/ha): 100; phytotoxicity rating AMARE ([12]; 250 g ai/ha): 100; Post-emerge Herbicidal Activity ABUTH (phytotoxicity rating) ([13]; 63 g ai/ha): 100; Post-emerge Herbicidal Activity ABUTH (phytotoxicity rating) ([13]; 250 g ai/ha): 100; Post-emerge Herbicidal Activity IPOHE (phytotoxicity rating) ([14]; 63 g ai/ha): 90; Post-emerge Herbicidal Activity IPOHE (phytotoxicity rating) ([14]; 250 g ai/ha): 100; Post-emerge Herbicidal Activity AMARE (phytotoxicity rating) [15, 21]: 70; Post-emerge Herbicidal Activity AMARE (phytotoxicity rating) [15, 22]: 100; Post-emerge Herbicidal Activity CHEAL (phytotoxicity rating) ([16]; 63 g ai/ha): 100; Post-emerge Herbicidal Activity CHEAL (phytotoxicity rating) ([16]; 250 g ai/ha): 100; Post-emerge Herbicidal Activity CASOB (phytotoxicity rating) ([17]; 63 g ai/ha): 40; Post-emerge Herbicidal Activity CASOB (phytotoxicity rating) ([17]; 250 g ai/ha): 80; Post-emerge Herbicidal Activity SETVI (phytotoxicity rating) ([18]; 63 g ai/ha): 40; Post-emerge Herbicidal Activity SETVI (phytotoxicity rating) ([18]; 250 g ai/ha): 80; Post-emerge Herbicidal Activity DIGSA (phytotoxicity rating) ([19]; 63 g ai/ha): 30; Post-emerge Herbicidal Activity DIGSA (phytotoxicity rating) ([19]; 250 g ai/ha): 70; Post-emerge Herbicidal Activity ECHCG (phytotoxicity rating) ([20]; 63 g ai/ha): 40; Post-emerge Herbicidal Activity ECHCG (phytotoxicity rating) ([20]; 250 g ai/ha): 90
